For assay [1], the system named is Peripheral Blood Mononuclear Cells (PBMCs), TNFα release. Put plainly: LPS-stimulated PBMC TNFα release assay. The note with it: human PBMC, LPS (10 ng/ml), 18 h, compound 1 h before LPS; read-out: LPS-stimulated PBMC TNFα release inhibition. The class given is cell-based. The protocol:
LPS-Stimulated PBMC TNFα Release Assay
Peripheral Blood Mononuclear Cells (PBMCs) were isolated from healthy human volunteer blood using a standard density gradient centrifugation technique. Citrated blood was placed onto Histopaque™ and centrifuged. The PBMCs were removed from the density gradient interface and washed in phosphate buffered saline (PBS). The PBMCs were suspended in RPMI 1640 medium (without serum), dispensed into a 96-well plate and incubated at 37° C. for 3 h in a humidified incubator. After incubation, the medium was replaced (with medium containing 1% foetal bovine serum) and the plate incubated at 37° C., for 1 h, in the presence of test compound or the appropriate vehicle. LPS (10 ng/ml), or an appropriate vehicle control, was then added to the cells and the plate returned to the incubator for 18 h. Cell-free supernatants were removed and assayed for TNFα levels using MSD plates on the Sector Imager 6000 (MesoScale).
A dose response curve to each test compound was performed and the effect of compound in each experiment was expressed as a percentage inhibition of the control TNFα release. Dose response curves were plotted and compound potency (IC50) was determined. Compounds were tested in at least three separate experiments.

For assay [2], the target named is T1, p38 alpha (Homo sapiens, UniProt Q16539).
T1 construct: purchased Invitrogen PV3304
T1 sequence (Q16539 whole entry): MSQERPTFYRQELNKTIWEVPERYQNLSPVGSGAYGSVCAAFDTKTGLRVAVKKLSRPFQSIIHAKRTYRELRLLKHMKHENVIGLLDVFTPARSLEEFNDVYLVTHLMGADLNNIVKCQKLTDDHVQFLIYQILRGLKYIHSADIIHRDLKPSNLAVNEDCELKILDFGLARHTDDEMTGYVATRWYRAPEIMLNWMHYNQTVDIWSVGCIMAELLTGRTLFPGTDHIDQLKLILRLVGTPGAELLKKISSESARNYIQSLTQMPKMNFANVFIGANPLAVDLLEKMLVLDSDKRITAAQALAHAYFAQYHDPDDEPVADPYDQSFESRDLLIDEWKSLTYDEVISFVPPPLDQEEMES
Description: P38 alpha enzyme inhibition assay (Alphascreen kinase activity assay). The format is biochemical. The note with it: 100 pM p38 alpha, 2 hours preincubation at 25° C., 250 μM ATP, ATF-2 fusion protein; read-out: p38α inhibition. The protocol: P38 Alpha Enzyme Inhibition Assay
The inhibitory activity of compounds was determined using an Alphascreen® (Perkin Elmer) based kinase activity assay. Kinase reactions consisted of 25 mM HEPES pH 7.5, 10 mM MgCl2, 100 μM Na3VO4, 2 mM DTT, 0.05 mg/ml Tween 20, 100 pM p38 alpha (Invitrogen, PV3304), 1% DMSO and 0.3 μg/ml ATF-2 fusion protein (New England Biolabs, 9224). Compounds were incubated under these conditions for 2 hours, at 25° C., prior to the initiation of the kinase activity by the addition of the 250 μM ATP. Reaction volumes were 20 μL. After 1 hr at 25° C. reactions were stopped by the adding 10 μL of 25 mM HEPES pH 7.5 containing 62.5 mM EDTA, 0.05% Triton X-100, 10% BSA and 0.83 ng/uL anti-phospho-ATF2 antibody (Abcam, ab28812). Detection was performed by measuring luminescence following the addition of Alphascreen Donor beads (Perkin Elmer 6765300) and Protein A Alphascreen Acceptor beads (Perkin Elmer 6760137), both at a final concentration of 20 ug/ml. IC50 values were determined from concentration-response curves.

Structures can show the parent of a compound that is named as a salt.

In the case of `CN(C)CCNC(=O)c1nc(NC(=O)N[C@H]2CC[C@@H](Oc3ccc4nnc(C(C)(C)C)n4c3)c3ccccc32)cc(C(C)(C)C)n1` [Example 1, 4-(tert-Butyl)-6-(3-((1S,4R)-4-((3-(tert-butyl)-[1,2,4]triazolo[4,3-a]pyridin-6-yl)oxy)-1,2,3,4-tetrahydronaphthalen-1-yl)ureido)-N-(2-(dimethylamino)ethyl)-pyrimidine-2-carboxamide], the IC50 in assay [1] was 1 to 5 nM; in assay [2], under 1 nM.
In the same order, the values of `CCC(C)(C)c1nnc2ccc(O[C@@H]3CC[C@H](NC(=O)Nc4cc(C(C)(C)C)nc(C(=O)NCCN(C)CCO)n4)c4ccccc43)cn12` [Example 2, 4-(tert-Butyl)-N-(2-((2-hydroxyethyl)(methyl)amino)ethyl)-6-(3-((1S,4R)-4-((3-(tert-pentyl)-[1,2,4]triazolo[4,3-a]pyridin-6-yl)oxy)-1,2,3,4-tetrahydronaphthalen-1-yl)ureido)pyrimidine-2-carboxamide] are 1 to 5 nM and under 1 nM.
In the same order, the values of `CCC(C)(C)c1nnc2ccc(O[C@@H]3CC[C@H](NC(=O)Nc4cc(C(C)(C)C)nc(C(=O)NCCN(C)C)n4)c4ccccc43)cn12` [Example 3, 4-(tert-Butyl)-N-(2-(dimethylamino)ethyl)-6-(3-((1S,4R)-4-((3-(tert-pentyl)-[1,2,4]triazolo[4,3-a]pyridin-6-yl)oxy)-1,2,3,4-tetrahydronaphthalen-1-yl)ureido)pyrimidine-2-carboxamide] are 1 to 5 nM and under 1 nM.
The corresponding values for `CCC(C)(C)c1nnc2ccc(O[C@@H]3CC[C@H](NC(=O)Nc4cc(C(C)(C)C)nc(C(=O)NCCN(C)CCOC)n4)c4ccccc43)cn12` [Example 4] are 1 to 5 nM and under 1 nM.
Take `CCC(CC)c1nnc2ccc(O[C@@H]3CC[C@H](NC(=O)Nc4cc(C(C)(C)C)nc(C(=O)NCCN(C)C)n4)c4ccccc43)cn12` [Example 5, 4-(tert-Butyl)-N-(2-(dimethylamino)ethyl)-6-(3-((1S,4R)-4-((3-(pentan-3-yl)-[1,2,4]triazolo[4,3-a]pyridin-6-yl)oxy)-1,2,3,4-tetrahydronaphthalen-1-yl)ureido)pyrimidine-2-carboxamide]: the IC50 was 1 to 5 nM in assay [1] and under 1 nM in assay [2].
Turning to `CCC(CC)c1nnc2ccc(O[C@@H]3CC[C@H](NC(=O)Nc4cc(C(C)(C)C)nc(C(=O)NCCN5CC(OC)C5)n4)c4ccccc43)cn12` [Example 6, 4-(tert-Butyl)-N-(2-(3-methoxyazetidin-1-yl)ethyl)-6-(3-((1S,4R)-4-((3-(pentan-3-yl)-[1,2,4]triazolo[4,3-a]pyridin-6-yl)oxy)-1,2,3,4-tetrahydronaphthalen-1-yl)ureido)pyrimidine-2-carboxamide], the IC50 in assay [1] is 1 to 5 nM; in assay [2], under 1 nM.
With `COCC(C)(C)c1nnc2ccc(O[C@@H]3CC[C@H](NC(=O)Nc4cc(C(C)(C)C)nc(C(=O)NCC(C)(C)N(C)C)n4)c4ccccc43)cn12` [Example 7, 4-(tert-Butyl)-N-(2-(dimethylamino)-2-methylpropyl)-6-(3-((1S,4R)-4-((3-(1-methoxy-2-methylpropan-2-yl)-[1,2,4]triazolo[4,3-a]pyridin-6-yl)oxy)-1,2,3,4-tetrahydronaphthalen-1-yl)ureido)pyrimidine-2-carboxamide], the values for the IC50 in assay [1] and in assay [2] were 1 to 5 nM and under 1 nM, respectively.
In the case of `CC[C@H](C)c1nnc2ccc(O[C@@H]3CC[C@H](NC(=O)Nc4cc(C(C)(C)C)nc(C(=O)NCC(C)(C)N(C)C)n4)c4ccccc43)cn12` [Example 8, 4-(tert-Butyl)-6-(3-((1S,4R)-4-((3-((S)-sec-butyl)-[1,2,4]triazolo[4,3-a]pyridin-6-yl)oxy)-1,2,3,4-tetrahydronaphthalen-1-yl)ureido)-N-(2-(dimethylamino)-2-methylpropyl)pyrimidine-2-carboxamide], the IC50 in assay [1] is 1 to 5 nM; in assay [2], under 1 nM.
In the same order, the values of `CC(C)(C)c1cc(NC(=O)N[C@H]2CC[C@@H](Oc3ccc4nnc(C(C)(C)C)n4c3)c3ccccc32)cc(C(=O)NCCN2CCC(O)CC2)n1` [Example 9, 6-(tert-Butyl)-4-(3-((1S,4R)-4-((3-(tert-butyl)-[1,2,4]triazolo[4,3-a]pyridin-6-yl)oxy]-1,2,3,4-tetrahydronaphthalen-1-yl}ureido)-N-(2-(4-hydroxypiperidin-1-yl)ethyl)picolinamide] are 1 to 5 nM and under 1 nM.
For the compound `CCN(CC)c1nnc2ccc(O[C@@H]3CC[C@H](NC(=O)Nc4cc(C(=O)NCCN(C)C)nc(C(C)(C)C)c4)c4ccccc43)cn12` [Example 10, 6-(tert-Butyl)-4-(3-((1S,4R)-4-((3-(diethylamino)-[1,2,4]triazolo[4,3-a]pyridin-6-yl)oxy)-1,2,3,4-tetrahydronaphthalen-1-yl)ureido)-N-(2-(dimethylamino)ethyl)picolinamide], the values for the IC50 in assay [1] and in assay [2] were 1 to 5 nM and under 1 nM, respectively.
For the compound `CN1CCN(c2nc(NC(=O)N[C@H]3CC[C@@H](Oc4ccc5nnc([C@]6(C)CCCN6C)n5c4)c4ccccc43)cc(C(C)(C)C)n2)CC1` [Example 31, 1-(6-(tert-Butyl)-2-(4-methylpiperazin-1-yl)pyrimidin-4-yl)-3-((1S,4R)-4-((3-((S)-1,2-dimethylpyrrolidin-2-yl)-[1,2,4]triazolo[4,3-a]pyridin-6-yl)oxy)-1,2,3,4-tetrahydronaphthalen-1-yl)urea], in assay [1], the IC50 is over 5 nM.
With `COCCN(C)C(C)(C)CNC(=O)c1nc(NC(=O)N[C@H]2CC[C@@H](Oc3ccc4nnc(C(C)(C)C)n4c3)c3ccccc32)cc(C(C)(C)C)n1` [Example 177, 4-(tert-butyl)-6-(3-((1S,4R)-4-((3-(tert-butyl)-[1,2,4]triazolo[4,3-a]pyridin-6-yl)oxy)-1,2,3,4-tetrahydronaphthalen-1-yl)ureido)-N-(2-((2-methoxyethyl)(methyl)-amino)-2-methylpropyl)pyrimidine-2-carboxamide], in assay [2], the IC50 was 1 to 10 nM.
Still for that read-out and setting: the figure for `COCCN(C)C(C)(C)CNC(=O)c1nc(NC(=O)N[C@H]2CC[C@@H](Oc3ccc4nnc(C(C)(C)OC)n4c3)c3ccccc32)cc(C(C)(C)C)n1` [Example 179, 4-(tert-butyl)-N-(2-((2-methoxyethyl)(methyl)amino)-2-methylmpropyl)-6-(3-((1S,4R)-4-((3-(2-methoxypropan-2-yl)-[1,2,4]triazolo[4,3-a]pyridin-6-yl)oxy)-1,2,3,4-tetrahydronaphthalen-1-yl)ureido)pyrimidine-2-carboxamide] is 1 to 10 nM; for `CCOC(C)(C)c1nnc2ccc(O[C@@H]3CC[C@H](NC(=O)Nc4cc(C(C)(C)C)nc(C(=O)NCCN(C)C)n4)c4ccccc43)cn12` [Example 180, 4-(tert-Butyl)-N-(2-(dimethylamino)ethyl)-6-(3-((1S,4R)-4-((3-(2-ethoxypropan-2-yl)-[1,2,4]triazolo[4,3-a]pyridin-6-yl)oxy)-1,2,3,4-tetrahydronaphthalen-1-yl)ureido)pyrimidine-2-carboxamide formate salt] it is 1 to 10 nM; for `COC(C)(C)c1nnc2ccc(O[C@@H]3CC[C@H](NC(=O)Nc4cc(C(=O)NCCN(C)C)nc(C(C)(C)C)c4)c4ccccc43)cn12` [Example 185, 6-(tert-butyl)-N-(2-(dimethylamino)ethyl)-4-(3-((1S,4R)-4-((3-(2-methoxypropan-2-yl)-[1,2,4]triazolo[4,3-a]pyridin-6-yl)oxy)-1,2,3,4-tetrahydronaphthalen-1-yl)ureido)picolinamide] it is 1 to 10 nM.
As to `COC(C)(C)c1nnc2ccc(O[C@@H]3CC[C@H](NC(=O)Nc4cc(C(=O)NCC(C)(C)N(C)C)nc(C(C)(C)C)c4)c4ccccc43)cn12` [Example 194, 6-(tert-butyl)-N-(2-(dimethylamino)-2-methylpropyl)-4-(3-((1S,4R)-4-((3-(2-methoxypropan-2-yl)-[1,2,4]triazolo[4,3-a]pyridin-6-yl)oxy)-1,2,3,4-tetrahydronaphthalen-1-yl)ureido)picolinamide], in assay [2], the IC50 fell in the range of 1 to 10 nM.
Turning to `COC1CCN(CCNC(=O)c2cc(NC(=O)N[C@H]3CC[C@@H](Oc4ccc5nnc(C(C)(C)C)n5c4)c4ccccc43)cc(C(C)(C)C)n2)CC1` [Example 203, 6-(tert-butyl)-4-(3-((1S,4R)-4-((3-(tert-butyl)-[1,2,4]triazolo[4,3-a]pyridin-6-yl)oxy)-1,2,3,4-tetrahydronaphthalen-1-yl)ureido)-N-(2-(4-methoxypiperidin-1-yl)ethyl)picolinamide], the IC50 in assay [2] lay within 1 to 10 nM.

The record behind these values is patent publication US10364245B2 (CHIESI FARMACEUTICI S.p.A., priority 2017, dated 2019).
